{"source": "patent US20250017905A1", "about": "“COMPOSITION FOR INHIBITING HISTAMINE-N-METHYLTRANSFERASE” (SUNTORY HOLDINGS LIMITED, priority 2021, published 2025)", "target": "T1, recombinant human histamine-N-methyltransferase (HNMT) (Homo sapiens, UniProt P50135)", "T1 construct": "host or cells: Escherichia coli", "T1 sequence (P50135 whole entry)": "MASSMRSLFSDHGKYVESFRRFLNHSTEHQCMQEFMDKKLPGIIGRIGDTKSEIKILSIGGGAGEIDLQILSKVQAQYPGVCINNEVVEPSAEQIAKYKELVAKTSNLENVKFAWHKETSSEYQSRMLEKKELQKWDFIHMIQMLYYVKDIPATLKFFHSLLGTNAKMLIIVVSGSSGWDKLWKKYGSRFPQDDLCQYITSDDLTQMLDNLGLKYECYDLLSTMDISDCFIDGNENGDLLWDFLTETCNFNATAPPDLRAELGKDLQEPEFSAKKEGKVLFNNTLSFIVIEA", "assay": "Evaluation of histamine-N-methyltransferase inhibitory activity (Eurofins Panlabs, [3H]N-methylhistamine formation)", "type": "biochemical", "experimental": "The study was commissioned to Eurofins Panlabs. The study was performed using recombinant human histamine-N-methyltransferase (HNMT) expressed in Escherichia coli. First, HNMT (0.025 μg/mL) was incubated with L-ergothioneine (L-ergothioneine concentration: 10 μM, 30 μM, 100 μM, 300 μM, or 1000 μM) in a phosphate buffer (pH 7.8) at 37° C. for 15 minutes. Next, 20 μM histamine, 1.4 μM S-(5′-adenosyl)-L-methionine, and 0.014 μM S-adenosyl-L-[methyl-3H]methionine were added to initiate an enzymatic reaction. After incubating at 37° C. for 30 minutes, 2.5 M borate was added to terminate the reaction. Lastly, the enzyme inhibitory activity of L-ergothioneine was evaluated using the amount of [3H]N-methylhistamine formed in the reaction as an index.\nThe concentration (μM) on the horizontal axis is the L-ergothioneine concentration.", "data": [{"smiles": "C[N+](C)(C)[C@@H](Cc1c[nH]c(=S)[nH]1)C(=O)[O-]", "note": "[L-ergothioneine]", "values": [{"measurement": "histamine-N-methyltransferase inhibition (FIG. 1), in words", "setting": "10 μM, 30 μM, 100 μM, 300 μM, or 1000 μM", "result": "concentration-dependent manner"}, {"measurement": "IC50", "setting": "HNMT 0.025 μg/mL, phosphate buffer pH 7.8, 37° C., 20 μM histamine, 10-1000 μM tested, read-out: L-ergothioneine concentration (IC50) that inhibits 50% of substrate binding of histamine-N-methyltransferase", "result": 46.2, "unit": "µM"}]}]}
